In publication PMC6882468 (Journal of Enzyme Inhibition and Medicinal Chemistry, 2019):

Tests used:
[1] = tested on: p38 phosphorylation in RAW264.7 cells; assay: Western blot of LPS-induced p38 phosphorylation; format: cell-based, Murine; conditions: RAW264.7, 5, 10, 20 μM, LPS 200 ng/mL
Method: (§1) The cell in 96-well plates were treated as described above and then stimulated with LPS (200 ng/mL) for 24 h. The cells were harvested and lysed in an extraction lysis buffer (Beyotime Biotechnology, Shanghai, China) containing protease inhibitors. The protein concentration was determined using a BCA protein assay kit (Thermo Scientific, 23227). The whole cell lysates were separated by 10% sodium dodecyl sulphate-polyacrylamide gel electrophoresis and transferred to a nitrocellulose membrane. Each membrane was incubated with Tris-buffered saline (pH 7.6, containing 0.05% Tween-20 and 5% non-fat milk). The nitrocellulose membrane was incubated with the primary antibody against p-JNK1/2, JNK1/2, p-p38, p38, p-ERK1/2, ERK1/2, IκBa, NF-κB p65, COX-2, iNOS or β-Actin (Abcam, Cambridge, UK). Immunoreactive bands were detected by incubating with horseradish peroxidase-conjugated secondary antibodies, and visualised using enhanced chemiluminescence reagents (Bio-Rad, Hercules, CA).
(§2) Figure 7. Compound 6n inhibited LPS-induced MAPK-signalling activation in RAW264.7 cells. RAW264.7 cells were co-incubated with 6n (5, 10, 20 μM) and LPS (200 ng/mL) for 30 min. The levels of p38, JNK, ERK1/2 and their phosphorylated forms were analysed using western blot.

COX-2 = biological target: T1, COX-2 (Homo sapiens, UniProt P35354); assay: COX-2 inhibition assay in vitro (COX Inhibitor Screening Kit, fluorometric)
T1 sequence (P35354 18-604): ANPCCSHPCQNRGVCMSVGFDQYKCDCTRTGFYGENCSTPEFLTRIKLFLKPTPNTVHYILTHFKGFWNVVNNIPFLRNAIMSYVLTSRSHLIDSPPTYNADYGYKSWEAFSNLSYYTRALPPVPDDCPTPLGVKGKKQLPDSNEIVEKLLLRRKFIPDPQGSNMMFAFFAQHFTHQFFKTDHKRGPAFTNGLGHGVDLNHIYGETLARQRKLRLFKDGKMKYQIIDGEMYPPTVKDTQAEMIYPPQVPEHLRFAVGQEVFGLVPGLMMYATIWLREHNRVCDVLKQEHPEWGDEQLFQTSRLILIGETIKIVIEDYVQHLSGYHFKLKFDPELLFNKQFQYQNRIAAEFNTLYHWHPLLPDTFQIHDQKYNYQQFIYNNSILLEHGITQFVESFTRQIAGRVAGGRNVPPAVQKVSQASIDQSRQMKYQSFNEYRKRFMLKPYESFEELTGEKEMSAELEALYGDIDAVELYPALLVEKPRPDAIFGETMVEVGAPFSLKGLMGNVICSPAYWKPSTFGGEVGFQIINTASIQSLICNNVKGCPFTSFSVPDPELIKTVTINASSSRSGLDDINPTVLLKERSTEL
Method: Simply, different concentrations of the test compound solution were added to the mixed solution containing COX-1/COX-2 enzyme (10 µL) and Assay Buffer (960 µL, 0.1 M Tris-HCl pH 8.0 containing 5 µM EDTA and 2 µM phenol). […] The IC50 values were calculated as described above.

[2] = tested on: ERK phosphorylation in RAW264.7 cells; assay: Western blot of LPS-induced ERK phosphorylation; format: cell-based, Murine; conditions: RAW264.7, 5, 10, 20 μM, LPS 200 ng/mL
Method: as §1, §2

[3] = tested on: DNFB-induced mouse model of allergic contact dermatitis; assay: DNFB-induced mouse model of allergic contact dermatitis (ear swelling); format: in vivo, Male ICR mice
Method: Male ICR mice (20 ± 2 g) were obtained from the Experimental Animal Centre of Anhui Medical University (Hefei, China). The mice reared in a pathogen-free setting (23 ± 2 °C, 55 ± 5% humidity) with free access to water and pelleted food throughout the experimental cycle. All experimental procedures performed in accordance with guide for the Care and Use of Laboratory Animals (National Research Council, 1996) and were approved by the Experimental Animal Ethics Committee of Anhui University of Chinese Medicine (Hefei, China). After 7 days acclimatisation, the mice were randomly divided into control group, ACD model group, dexamethasone positive control group and 20 compound groups, six in each group. The control group and the model group were given the same dose of the vehicle, the positive control group was given dexamethasone 0.5 mg/kg, and the test compound groups were given compound 5 mg/kg, all of which were given by intragastric administration and were administered once a day for 6 days. Except for the control group, the 50 µL of 1% DNFB (in acetone/olive oil 4:1) was administered to the stripped epidermis, and repeated the next day. After 6 days of drug treatment, 10 µL of 1% DNFB acetone olive oil solution was applied on both sides of the right ear to stimulate inflammation, and equivalent acetone olive oil solution was applied on the left ear for comparison. […] Calculation was carried out according to the following equations. Swelling degree (mg) = MR – ML Inhibitory rate of ear swelling (%)=((MR – ML) model – (MR – ML) treated)/(MR – ML) model ×100% MR=Average weight of the right ear slices;ML= Average weight of the left ear slices […] Dexamethasone (DEX) at a p.o. dose of 0.5 mg/kg was employed as the positive control. After the mice were sacrificed, the swelling degree and inhibition rate were calculated by weighing the same part of both ears.

[4] = tested on: NF-κB activation in RAW264.7 cells; assay: Western blot of LPS-induced NF-κB activation; format: cell-based, Murine; conditions: RAW264.7, 2-h pre-treatment before LPS stimulation
Method: as §1
Figure 5. Compound 6n inhibited LPS-induced NF-κB activation in RAW264.7 cells. […] The levels of NF-κB p65, IκB, and their phosphorylated forms were analysed using western blot.

Q: How did the p38 phosphorylation [1] turn out when `COc1ccccc1CN1CCN(C(=O)c2ccccc2C(C)=O)CC1` [Compound 6n, 1–(2-(4–(2-Methoxybenzyl)piperazine-1-carbonyl)phenyl)ethan-1-one] was run?
A: significantly lower

Q: What about the IC50 (COX-2) of the same compound?
A: 36 ± 4 nM

Q: What about the “SI (COX-1/COX-2)” value (COX-2; IC50 (COX-1)/IC50 (COX-2)) of the same compound?
A: 349.72

Q: What about the “phosphorylation of ERK” value [2] of the same compound?
A: no obvious effect

Q: And the “Swelling degree” value ([3]; mice, 5 mg/kg intragastric once a day for 6 days, ear slices weighed 24 h after DNFB challenge, Mean ± SD, n = 6)?
A: 8.8 ± 3.2 mg

Q: What about the “Inhibition (%) of ear swelling” value ([3]; mice, 5 mg/kg intragastric once a day for 6 days, vs model group) of the same compound?
A: 46.3%

Q: What about the “in vivo inhibitory activity, in words” value ([3]; p.o. 5 mg/kg, p < 0.01) of the same compound?
A: significant inhibitory activity

Q: What about the “LPS-induced IκB phosphorylation” value [4] of the same compound?
A: markedly decreased

Q: And the “accumulation of NF-κB p65 subunit in the nucleus” value [4]?
A: lowered

Q: And the “cytosolic IκB” value [4]?
A: increased
